Results from patent US20230129095A1, “PEPTIDE INHIBITORS OF INTERLEUKIN-23 RECEPTOR AND THEIR USE TO TREAT INFLAMMATORY DISEASES” (Protagonist Therapeutics, Inc., priority 2020, published 2023).
*1 amine or outer side, *2 acyl side, *3 side chain or, on linkers, in order; H or OH if unused. Where a SMILES comes first, the peptide text is derived from it. Bridges are numbered along the chain shown (N, C = ends). [ ]: non-standard residue; d: D form. X1 = O=C([C@H](Cc1c[nH]c2c(-c3cccc(C(F)(F)F)c3)cccc12)N[*:1])[*:2]; X2 = O=C([C@H](Cc1c[nH]c2c(-c3ccc(F)cc3)cccc12)N[*:1])[*:2]; Trp(7-Ph) = N[C@@H](Cc1c[nH]c2c(-c3ccccc3)cccc12)C(=O)O; Ala(quinolin-3-yl) = N[C@@H](Cc1cnc2ccccc2c1)C(=O)O; 2Nal = N[C@@H](Cc1ccc2ccccc2c1)C(=O)O; AEF = NCCOc1ccc(C[C@H](N)C(=O)O)cc1; Pen = CC(C)(S)[C@H](N)C(=O)O; αMeK = C[C@](N)(CCCCN)C(=O)O

What was measured:
[1] = test system: Natural killer (NK) cells; assay type: cell-based, human
Excerpt: Where not shown, data was not yet determined.

[2] = Stability in simulated intestinal fluid (SIF); assay type: in vitro ADME; conditions: 37° C.; for SIF t1/2: 100 fold dilution of standard SIF concentration, 20 μM
Description: Studies were carried out in simulated intestinal fluid (SIF) and simulated gastric fluid (SGF) to evaluate gastric stability of the peptide inhibitors of the present invention. In addition, studies were carried out to assess redox stability of the peptide inhibitors of the present invention.
SIF was prepared by adding 6.8 g of monobasic potassium phosphate and 10.0 g of pancreatin to 1.0 L of water. After dissolution, the pH was adjusted to 6.8 using NaOH. DMSO stocks (2 mM) were first prepared for the test compounds. Aliquots of the DMSO solutions were dosed into 6 individual tubes, each containing 0.5 mL of SIF, which is pre-warmed to 37° C. The final test compound concentration was 20 μM. The vials were kept in a benchtop Thermomixer® for the duration of the experiment. At each timepoint (0, 5, 10, 20, 40, 60, or 360 minutes or 24 hours), 1.0 mL of acetonitrile containing 1% formic acid was added to one vial to terminate the reaction. Samples were stored at 4° C. until the end of the experiment. After the final timepoint is sampled, the tubes were mixed and then centrifuged at 3,000 rpm for 10 minutes. Aliquots of the supernatant were removed, diluted 1:1 into distilled water containing internal standard, and analyzed by LCMS/MS. Percent remaining at each timepoint was calculated based on the peak area response ratio of test to compound to internal standard. Time 0 was set to 100%, and all later timepoints were calculated relative to time 0. Half-lives were calculated by fitting to a first-order exponential decay equation using Graphpad.

[3] = Stability in human fecal homogenate (anaerobic); assay type: in vitro ADME; conditions: pH 6.8, 20% human fecal homogenate, 37° C., up to 24 hours, read-out: t1/2: Human Feces anaerobic
Description: (§1) Studies were carried out in human or cynomolgus monkey fecal homogenate to evaluate gastrointestinal stability of the peptide inhibitors of the present invention.
(§2) Fecal homogenate ([…]) was prepared by adding 4 mL of growth medium (1 liter contains 2 g peptone water powder, 2 g yeast extract, 0.1 g NaCl, 0.04 g KH2PO4, 0.01 g CaCl2.6H2O, 0.01 g MgSO4.7H2O, 2 mL Tween 80, 0.5 g bile salts, 0.5 g L-cysteine HCl, 2 g NaHCO3, and 10 μL Vitamin K, pH adjusted to 6.8, and sterilized by filtration through a 0.22 μm filter) to every gram of feces (pooled freshly collected human or cynomolgus monkey feces). The suspension was vortexed to break up large clumps, and homogenized using a bead mill homogenizer. Centrifuged the homogenate at 2800×g for 15 min. The supernatant is taken out and used for incubations. DMSO stocks (10 mM) were first prepared for the test compounds. Incubations were performed in an anaerobic chamber conditioned at 37° C. Aliquots of the DMSO solutions were dosed into 1.0 mL aliquots of 20% fecal homogenate, which are pre-warmed to 37° C. The final test compound concentration was 20 μM. At each timepoint (0, 20 min, 1, 3, 6, or 24 hours), 100 μL aliquot of each incubation mixture is taken out and added to separate tubes containing 300 μL of 50% acetonitrile/50% methanol and an internal standard to terminate the reaction. Samples were taken out of the anaerobic chamber and stored at 4° C. until the end of the experiment. After the final timepoint is sampled, the tubes were mixed and then centrifuged at 3,000 rpm for 10 minutes. Aliquots of the supernatant were removed, diluted 1:1 into distilled water containing 0.1% formic acid, and analyzed by LC/MS/MS. Percent remaining at each timepoint was calculated based on the peak area response ratio of test to compound to internal standard. Time 0 was set to 100%, and all later timepoints were calculated relative to time 0. Half-lives were calculated by fitting to a first-order exponential decay equation using Graphpad or Excel.

[4] = Stability in cynomolgus monkey fecal homogenate (anaerobic); assay type: in vitro ADME; conditions: pH 6.8, 20% cynomolgus monkey fecal homogenate, 37° C., up to 24 hours, read-out: t1/2: Monkey Feces anaerobic (converted)
Description: as §1, §2

Stability in rat plasma = assay type: in vitro ADME; conditions: both sexes, SD rat plasma, EDTA, 37° C., up to 24 hours, read-out: t1/2: Rat Plasma EDTA
Description: Peptides of interest (20 μM) were incubated with pre-warmed rat plasma (SD rat, mixed gender pooled, EDTA, filtered through 0.22 μm, BioreclamationIVT) at 37° C. Aliquots were taken at various time points up to 24 hours (e.g. 0, 0.25, 1, 3, 6 and 24 hr), and immediately quenched with 4 volumes of organic solvent (acetonitrile/methanol (1:1) and 0.1% formic acid, containing 1 μM internal standard). Quenched samples were stored at 4° C. until the end of the experiment and centrifuged at 4,000 rpm for 10 minutes. The supernatant were diluted 1:1 with deionized water and analyzed using LC-MS. Percentage remaining at each time point was calculated based on the peak area ratio (analyte over internal standard) relative to the initial level at time zero. Half-lives were calculated by fitting to a first-order exponential decay equation using GraphPad.

[5] = 20% fecal homogenate (supernatant)

Row | SMILES | IC50 [1] | SIF t1/2 [2] | half-life at 20 μM [3] | half-life at 20 μM [4] | half-life at 20 μM (Stability in rat plasma; pooled) | half-life at 20 μM ([2]; pH 6.8, 100 fold dilution of standard SIF concentration, read-out: SIF t1/2 (converted)) | half-life at 20 μM [3, 5] | half-life at 20 μM [4, 5] | half-life at 20 μM (Stability in rat plasma)
1 | CC(=O)NCCCC[C@@H]1NC(=O)[C@H](Cc2c[nH]c3c(-c4cccc(C(F)(F)F)c4)cccc23)NC(=O)[C@H]([C@@H](C)O)NC(=O)[C@H](CC(N)=O)NC(=O)[C@@H](NC(C)=O)C(C)(C)SSC(C)(C)[C@@H](C(=O)N[C@@H](Cc2ccc(OCCN)cc2)C(=O)N[C@@H](Cc2ccc3ccccc3c2)C(=O)N[C@@](C)(CCCCN)C(=O)N[C@@H](CCCCNC(C)=O)C(=O)N[C@@H](CC(N)=O)C(=O)N[C@H](CCCCN)C(N)=O)NC1=O [Peptide 9, Ac-[Pen]-N-T-[W(7-(3-CF3Ph))]-[Lys(Ac)]-[Pen]-Phe[4-(2-aminoethoxy)]-[2-Nal]-[a-MeLys]-[Lys(Ac)]-N-[(D)Lys)]-NH2] (Ac-[Pen]NT[X1]K(Ac)[Pen][AEF][2Nal][αMeK]K(Ac)N[dK]-NH2; disulfide 1-6) | 9.3 nM | 24 h | > 24 h | > 24 h | > 24 h | – | – | – | –
2 | CC(=O)NCCCC[C@@H]1NC(=O)[C@H](Cc2c[nH]c3c(-c4ccccc4)cccc23)NC(=O)[C@H]([C@@H](C)O)NC(=O)[C@H](CC(N)=O)NC(=O)[C@@H](NC(C)=O)C(C)(C)SSC(C)(C)[C@@H](C(=O)N[C@@H](Cc2ccc(OCCN)cc2)C(=O)N[C@@H](Cc2ccc3ccccc3c2)C(=O)N[C@@](C)(CCCCN)C(=O)N[C@@H](CCCCNC(C)=O)C(=O)N[C@@H](CC(N)=O)C(=O)N[C@H](CC(C)C)C(N)=O)NC1=O [Peptide 1, Ac-[Pen]-N-T-[W(7-Ph)]-[Lys(Ac)]-[Pen]-Phe[4-(2-aminoethoxy)]-[2-Nal]-[a-MeLys]-[Lys(Ac)]-N-[(D)Leu]-NH2] | 4.3 nM | – | > 24 h | > 24 h | > 24 h | 11.1 h | – | – | –
3 | CC(=O)NCCCC[C@@H]1NC(=O)[C@H](Cc2c[nH]c3c(-c4ccccc4)cccc23)NC(=O)[C@H]([C@@H](C)O)NC(=O)[C@H](CC(N)=O)NC(=O)[C@@H](NC(C)=O)C(C)(C)SSC(C)(C)[C@@H](C(=O)N[C@@H](Cc2ccc(OCCN)cc2)C(=O)N[C@@H](Cc2cnc3ccccc3c2)C(=O)N[C@@](C)(CCCCN)C(=O)N[C@@H](CCCCNC(C)=O)C(=O)N[C@@H](CC(N)=O)C(=O)N[C@H](CC(C)C)C(N)=O)NC1=O [Peptide 16, Ac-[Pen]-N-T-[W(7-Ph)]-[Lys(Ac)]-[Pen]-Phe[4-(2-aminoethoxy)]-[3Quin]-[a-MeLys]-[Lys(Ac)]-N-[(D)Leu]-NH2] (Ac-[Pen]NT[Trp(7-Ph)]K(Ac)[Pen][AEF][Ala(quinolin-3-yl)][αMeK]K(Ac)N[dL]-NH2; disulfide 1-6) | 2.9 nM | 24 h | – | – | – | – | > 24 h | > 24 h | > 24 h
4 | CC(=O)NCCCC[C@@H]1NC(=O)[C@H](Cc2c[nH]c3c(-c4ccc(F)cc4)cccc23)NC(=O)[C@H]([C@@H](C)O)NC(=O)[C@H](CC(N)=O)NC(=O)[C@@H](NC(C)=O)C(C)(C)SSC(C)(C)[C@@H](C(=O)N[C@@H](Cc2ccc(OCCN)cc2)C(=O)N[C@@H](Cc2ccc3ccccc3c2)C(=O)N[C@@](C)(CCCCN)C(=O)N[C@@H](CCCCNC(C)=O)C(=O)N[C@@H](CC(N)=O)C(=O)N[C@H](CCCCN)C(N)=O)NC1=O [Peptide 10, Ac-[Pen]-N-T-[W(7-(4-FPh))]-[Lys(Ac)]-[Pen]-Phe[4-(2-aminoethoxy)]-[2-Nal]-[a-MeLys]-[Lys(Ac)]-N-[(D)Lys)]-NH2] (Ac-[Pen]NT[X2]K(Ac)[Pen][AEF][2Nal][αMeK]K(Ac)N[dK]-NH2; disulfide 1-6) | 3.32 nM | 24 h | > 24 h | > 24 h | > 24 h | – | – | – | –
